Assay results from patent publication US8618101B2, “N-((1R,2S,5R)-5-(tert-butylamino)-2-((S)-3-(7-tert-butylpyrazolo[1,5-a][1,3,5]triazin-4-ylamino)-2-oxopyrrolidin-1-yl)cyclohexyl)acetamide, a dual modulator of chemokine receptor activity, crystalline forms and processes” (Bristol-Myers Squibb Company, priority 2009, dated 2013).
Where two headings read alike, the source gives them in different places.

Assays:
[1] = molecular target: T1, human cardiac sodium channel, SCN5A (Homo sapiens, UniProt Q14524); assay: Sodium channel patch clamp; format: cell-based; details: read-out: Na+ channel patch clamp (% Inhib.)
T1 construct: expressed in transfected cells; host or cells: HEK-293
Description: Whole-cell patch-clamp was used to directly measure inward sodium currents in HEK-293 cells expressing the human cardiac sodium channel, SCN5A. The compound was tested at a protein-free aqueous buffer. For determining steady state inhibition, sodium currents were elicited every 5 seconds using the following voltage protocol: cells were held at a potential of −90 mV and stepped to −20 mV for 60 ms. Effects were calculated by measuring inhibition of peak current during the test pulse to −20 mV. Rate-dependence of inhibition was assessed by stimulation at frequencies of 1 Hz and 4 Hz.

[2] = molecular target: T2, CCR-5 (Homo sapiens, UniProt P51681); assay: CCR-5 calcium mobilization, HT1080/CCR-5 cells; format: cell-based; details: MIP-1β 50 nM, read-out: CCR-5 ^2+ Flux IC50
T2 construct: human peripheral T cells was used as a source of CCR-5; endogenous in cells; host or cells: human peripheral T cells from donors pre-screened for high CCR-5 expression

[3] = test system: monocyte/macrophage infiltration; assay: 48-hour thioglycollate (TG)-induced peritonitis model in hCCR-2 KI mouse; format: in vivo; details: for % inhibition of monocyte/macrophage infiltration: 48 h post TG
Description: The hCCR-2 KI mice (C57BL/6-SVJ129) were injected intraperitoneally with 1 ml of thioglycollate (TG) (Hardy Diagnostics). For each study, eight male mice per group were used. Example 1 was dosed orally 1 hour prior to TG injection. The vehicle used was 0.01 N HCl in water. Forty-eight hours post TG injection, peritoneal lavages were performed by injecting 5 ml PBS/10 mM EDTA/10% BSA into the peritoneal cavity.
(§1) For the 48-hour TG peritonitis study, Example 1 was dosed twice a day with the first dose one hour prior to TG injection. Total peritoneal cell counts were obtained on isolated cells by a cell counter. Cytospins were performed to determine differential leukocyte counts. The cells were stained for 3 minutes with Wright-Giemsa Stain (Sigma-Aldrich) and then rinsed with deionized water for 5 minutes. Differential counts were calculated based on a total of 200 cells counted per sample. Blood was also collected from the retro-orbital sinus at the end of each study in EDTA for determination of drug concentration.
For flow cytometric analysis, peritoneal exudate cells (1×10^6) were washed once with FACS buffer (PBS/0.5% BSA) and resuspended in FACS buffer. Cells were incubated with an Fc-blocking antibody (BD Pharmingen) on ice for 15 min followed by addition of the following antibodies (BD Pharmingen): PE conjugated anti-F4/80, FITC conjugated anti-Ly6C, and Alexa 647 conjugated anti-hCCR-2. After 45 min on ice, cells were fixed by BD CYTOFIX® for 15 min on ice, washed twice with FACS buffer, and resuspended in 200 μl FACS buffer. Cellular events (40,000) were acquired for each sample and data were analyzed using FloJo software (TreeStar). A FSC/SSC gate was set to include all monocytes (low SSC, higher FSC) while excluding granulocytes from the analysis. This gated population was then analyzed for Ly6C (FITC), F4/80 (PE) expression. Peritoneal monocytes/macrophage numbers were determined by multiplying total peritoneal cell counts obtained by the cell counter and the percentage of monocytes/macrophages identified by F4/80^+ cells from flow cytometry. Statistical significance of differences between means was analyzed using the paired two-tailed t test with significance set at p values below 0.05.
Example 1 was evaluated in the hCCR-2 KI mouse TG peritonitis model to determine its EC50 in inhibiting monocyte/macrophage infiltration. Mice were administered thioglycollate, and dosed orally with Example 1 at 10, 50, or 160 mg/kg BID. Forty eight hours post TG treatment, peritoneal lavage was obtained for cellular infiltrate analysis by flow cytometry.

[4] = Plasma levels of Example 1 and mouse MCP-1 in the 48-hour TG peritonitis model; format: in vivo; details: mouse, read-out: Concentration of free Example 1 in plasma (nM) (fold IC90 CCR-2 binding)
Description: as §1
The caveat for this estimation is that only CCR-2 and its major ligand MCP-1 were taken into consideration. The receptor occupancy of a ligand in the presence of a competitive inhibitor is defined by the Gaddum equation: […]

[5] = molecular target: T3, hERG (Homo sapiens, UniProt Q12809); assay: hERG patch clamp; format: cell-based; details: read-out: hERG patch clamp (% Inhib.)
T3 construct: expressed in transfected cells; host or cells: HEK293
Description: Whole-cell patch-clamp was used to directly measure hERG currents in HEK-293 cells stably expressing the cloned hERG potassium channel α subunit. […] Repetitive test pulses (0.05 Hz) were applied from a holding potential of −80 mV to +20 mV for 2 seconds and tail currents were elicited following the test pulses by stepping the voltage to −65 mV. The effects from the compound were calculated by measuring inhibition of peak tail current

[6] = molecular target: T2, CCR-5; assay: T cell CCR-5 binding assay, 125I-MIP-1β tracer; details: human peripheral T cells
Excerpt: The procedure used for T cell CCR-5 binding assay was similar to those for hPBMC CCR-2 binding assay except that human peripheral T cells was used as a source of CCR-5 (see below) and ^125I-MIP-1β as a tracer (Amersham).
Therefore, blood donors were pre-screened for high T-cell expression of CCR-5. hPBMCs were first isolated from human whole blood by standard protocol with Ficoll-Hypaque. Flow cytometric analysis was then used to measure CCR-5 expression on T cells following staining with anti-CCR-5 antibody plus anti-CD4 antibody or anti-CD8 antibody. Those blood donors in which >5% peripheral T cells (CD4^+ and CD8^+) express CCR-5 were requested to provide blood again for isolation of PBMCs and, subsequently, of T cells using a standard E-rosetting technique which relies on the unique ability of T cells to bind to sheep red blood cells (RBCs).

[7] = molecular target: CCR-2 (Homo sapiens, UniProt P41597); assay: CCR-2 whole blood integrin (CD11b) upregulation; format: cell-based
Description: A CCR-2-dependent CD11b upregulation assay was established with human whole blood. Whole blood (100 μl) was pre-incubated with a concentration range of Example 1 at 37° C. for 10 minutes. […] The reactions were incubated for 30 minutes at 37° C. […] The samples were then incubated for 30 minutes on ice in the dark. […] Data acquisition and analysis were performed using CellQuestPro software. A sequential gating strategy was used to analyze the CD14^high CD11b^+ monocyte population.

Sequence of CCR-2 (P41597 whole entry): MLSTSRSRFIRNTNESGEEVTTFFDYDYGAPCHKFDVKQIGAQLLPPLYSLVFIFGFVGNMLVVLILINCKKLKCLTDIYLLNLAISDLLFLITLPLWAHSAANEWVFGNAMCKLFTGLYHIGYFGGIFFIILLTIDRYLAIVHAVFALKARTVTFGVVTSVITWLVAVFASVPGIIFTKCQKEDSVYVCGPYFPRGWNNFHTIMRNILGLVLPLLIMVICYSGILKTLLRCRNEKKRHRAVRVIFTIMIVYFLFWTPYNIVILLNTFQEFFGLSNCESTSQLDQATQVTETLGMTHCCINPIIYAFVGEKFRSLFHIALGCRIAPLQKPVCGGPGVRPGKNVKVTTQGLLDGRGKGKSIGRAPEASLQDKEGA
T3 sequence (Q12809 whole entry): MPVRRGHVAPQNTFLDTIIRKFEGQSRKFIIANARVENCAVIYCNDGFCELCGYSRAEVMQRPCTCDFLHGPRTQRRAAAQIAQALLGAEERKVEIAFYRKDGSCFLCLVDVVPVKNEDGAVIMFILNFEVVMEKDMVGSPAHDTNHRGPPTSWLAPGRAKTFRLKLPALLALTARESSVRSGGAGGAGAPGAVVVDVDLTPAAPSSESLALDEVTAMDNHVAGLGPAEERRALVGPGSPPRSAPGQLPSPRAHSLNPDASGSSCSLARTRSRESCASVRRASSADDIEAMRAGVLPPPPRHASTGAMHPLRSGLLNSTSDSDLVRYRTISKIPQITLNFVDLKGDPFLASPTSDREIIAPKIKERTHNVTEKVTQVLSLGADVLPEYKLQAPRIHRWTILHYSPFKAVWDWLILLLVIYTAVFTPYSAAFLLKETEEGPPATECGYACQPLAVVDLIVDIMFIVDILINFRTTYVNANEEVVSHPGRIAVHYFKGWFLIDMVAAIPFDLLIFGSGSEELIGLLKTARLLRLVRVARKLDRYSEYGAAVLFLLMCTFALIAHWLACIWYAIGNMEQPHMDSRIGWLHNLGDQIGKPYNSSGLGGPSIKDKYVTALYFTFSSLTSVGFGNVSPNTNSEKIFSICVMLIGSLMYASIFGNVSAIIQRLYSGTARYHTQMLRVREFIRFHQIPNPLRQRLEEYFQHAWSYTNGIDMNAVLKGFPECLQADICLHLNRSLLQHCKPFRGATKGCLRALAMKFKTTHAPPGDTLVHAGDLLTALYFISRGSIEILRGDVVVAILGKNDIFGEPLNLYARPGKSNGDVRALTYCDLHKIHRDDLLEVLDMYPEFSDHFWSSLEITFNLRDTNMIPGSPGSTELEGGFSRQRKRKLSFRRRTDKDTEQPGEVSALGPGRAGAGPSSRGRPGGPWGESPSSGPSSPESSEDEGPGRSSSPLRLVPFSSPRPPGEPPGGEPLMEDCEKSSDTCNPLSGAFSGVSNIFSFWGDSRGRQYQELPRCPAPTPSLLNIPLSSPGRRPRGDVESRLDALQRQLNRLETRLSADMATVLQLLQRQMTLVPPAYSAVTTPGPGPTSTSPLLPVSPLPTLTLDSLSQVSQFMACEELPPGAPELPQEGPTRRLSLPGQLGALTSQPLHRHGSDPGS
T2 sequence (P51681 whole entry): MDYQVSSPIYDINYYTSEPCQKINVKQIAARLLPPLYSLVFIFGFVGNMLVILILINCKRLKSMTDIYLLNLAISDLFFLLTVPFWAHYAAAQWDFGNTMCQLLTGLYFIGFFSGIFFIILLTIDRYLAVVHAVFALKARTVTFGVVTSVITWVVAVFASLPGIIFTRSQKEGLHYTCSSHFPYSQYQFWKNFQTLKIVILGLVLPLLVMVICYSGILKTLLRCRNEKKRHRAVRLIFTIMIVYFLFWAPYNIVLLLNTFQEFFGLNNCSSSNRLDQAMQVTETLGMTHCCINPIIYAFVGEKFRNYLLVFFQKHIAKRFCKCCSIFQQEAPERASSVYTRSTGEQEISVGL
T1 sequence (Q14524 whole entry): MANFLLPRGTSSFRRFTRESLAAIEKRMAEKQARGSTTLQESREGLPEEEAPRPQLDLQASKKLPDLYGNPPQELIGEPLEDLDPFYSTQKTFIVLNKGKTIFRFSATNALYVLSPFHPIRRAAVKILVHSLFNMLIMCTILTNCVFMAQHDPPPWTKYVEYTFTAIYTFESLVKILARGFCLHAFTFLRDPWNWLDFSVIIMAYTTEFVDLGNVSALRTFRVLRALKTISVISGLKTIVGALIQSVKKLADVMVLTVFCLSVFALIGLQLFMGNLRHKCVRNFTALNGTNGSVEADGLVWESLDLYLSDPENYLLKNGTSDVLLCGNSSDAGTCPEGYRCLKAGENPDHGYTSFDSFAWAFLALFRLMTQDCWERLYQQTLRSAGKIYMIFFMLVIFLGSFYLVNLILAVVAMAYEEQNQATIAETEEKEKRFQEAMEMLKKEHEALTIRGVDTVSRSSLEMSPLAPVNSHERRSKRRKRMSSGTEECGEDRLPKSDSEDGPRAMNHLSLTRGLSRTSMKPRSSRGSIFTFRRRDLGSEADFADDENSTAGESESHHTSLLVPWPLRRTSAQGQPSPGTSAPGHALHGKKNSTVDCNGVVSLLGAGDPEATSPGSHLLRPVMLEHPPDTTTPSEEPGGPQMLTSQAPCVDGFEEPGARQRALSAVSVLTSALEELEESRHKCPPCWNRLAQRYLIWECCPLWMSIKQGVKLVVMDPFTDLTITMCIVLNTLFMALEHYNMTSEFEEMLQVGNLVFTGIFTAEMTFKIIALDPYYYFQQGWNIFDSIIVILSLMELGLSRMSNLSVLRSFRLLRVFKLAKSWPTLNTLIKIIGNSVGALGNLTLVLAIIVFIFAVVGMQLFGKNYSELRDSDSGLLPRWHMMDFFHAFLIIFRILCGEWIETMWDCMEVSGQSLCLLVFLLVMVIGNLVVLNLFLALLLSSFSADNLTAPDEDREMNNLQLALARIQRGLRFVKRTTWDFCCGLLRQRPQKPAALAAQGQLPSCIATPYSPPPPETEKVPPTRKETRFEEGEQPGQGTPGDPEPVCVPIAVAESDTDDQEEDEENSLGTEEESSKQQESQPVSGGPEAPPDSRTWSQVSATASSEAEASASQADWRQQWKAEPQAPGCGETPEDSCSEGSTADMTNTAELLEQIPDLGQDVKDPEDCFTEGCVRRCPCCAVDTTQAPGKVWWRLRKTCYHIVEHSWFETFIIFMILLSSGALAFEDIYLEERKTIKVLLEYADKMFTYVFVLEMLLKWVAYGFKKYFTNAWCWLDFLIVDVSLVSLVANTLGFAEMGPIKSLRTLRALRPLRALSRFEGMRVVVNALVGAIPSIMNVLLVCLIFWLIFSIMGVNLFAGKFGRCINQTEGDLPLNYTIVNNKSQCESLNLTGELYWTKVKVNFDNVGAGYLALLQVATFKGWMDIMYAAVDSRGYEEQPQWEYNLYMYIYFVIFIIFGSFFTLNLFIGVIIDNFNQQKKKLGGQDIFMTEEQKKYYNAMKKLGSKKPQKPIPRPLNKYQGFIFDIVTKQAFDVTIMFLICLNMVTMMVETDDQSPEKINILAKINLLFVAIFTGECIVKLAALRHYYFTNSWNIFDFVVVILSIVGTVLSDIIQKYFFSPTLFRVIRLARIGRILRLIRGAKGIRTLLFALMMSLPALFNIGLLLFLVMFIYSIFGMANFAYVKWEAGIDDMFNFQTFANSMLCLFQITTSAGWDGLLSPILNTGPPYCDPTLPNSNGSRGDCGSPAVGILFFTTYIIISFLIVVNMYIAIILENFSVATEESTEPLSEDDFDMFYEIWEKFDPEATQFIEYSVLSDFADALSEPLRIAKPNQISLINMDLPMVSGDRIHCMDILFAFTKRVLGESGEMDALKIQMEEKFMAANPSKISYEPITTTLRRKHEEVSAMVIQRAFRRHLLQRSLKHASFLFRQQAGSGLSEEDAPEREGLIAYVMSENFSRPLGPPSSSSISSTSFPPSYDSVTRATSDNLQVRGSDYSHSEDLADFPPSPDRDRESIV

SMILES: CC(=O)N[C@@H]1C[C@H](NC(C)(C)C)CC[C@@H]1N1CC[C@H](Nc2ncnc3cc(C(C)(C)C)nn23)C1=O [Example 1, N-((1R,2 S,5R)-5-(tert-Butylamino)-2-((S)-3-(7-tert-butylpyrazolo[1,5-a][1,3,5]triazin-4-ylamino)-2-oxopyrrolidin-1-yl)cyclohexyl)acetamide]
- inhibition at 10000 nM ([1]; 10,000 nM): 15 to 20%
- inhibition at 30000 nM ([1]; 30,000 nM): 13 to 16%
- IC50 [2]: 2 ± 1.4 nM
- % inhibition of monocyte/macrophage infiltration ([3]; 10 mg/kg oral BID): 25%
- % inhibition of monocyte/macrophage infiltration ([3]; 50 mg/kg oral BID): 54%
- % inhibition of monocyte/macrophage infiltration ([3]; 160 mg/kg oral BID): 63%
- % inhibition of monocyte/macrophage infiltration ([3]; 200 mg/kg (different study), oral BID): 71%
- EC50 ([3]; Mus musculus, estimated from four separate studies, hCCR-2 KI mouse, read-out: average EC50 for inhibition of monocyte/macrophage infiltration): 4.9 nM
- maximal inhibition of monocyte/macrophage infiltration reached ([3]; four separate studies with multiple doses): ~70%
- concentration at 48 h ([4]; hCCR-2 KI, oral, 10 mg/kg): 1.9 nM
- concentration at 48 h ([4]; hCCR-2 KI, oral, 50 mg/kg): 16.6 nM
- concentration at 48 h ([4]; hCCR-2 KI, oral, 200 mg/kg): 136 nM
- concentration at 48 h ([4]; 160 mg/kg oral BID, 48 h, hCCR-2 KI mice): 62 nM
- inhibition at 10000 nM ([5]; pH 7.4, 10,000 nM): 1.2%
- inhibition at 30000 nM ([5]; pH 7.4, 30,000 nM): 9.2%
- IC50 [6]: 3.6 ± 1.8 nM
- activity against CCR-2 versus CCR-5 (Table 5) ([7]; comparison of CCR-2 and CCR-5 CD11b IC50): equipotent against CCR-2 and CCR-5
- IC50 ([7]; human whole blood, MCP-1 10 nM): 4.8 nM
